Results reported in patent US11388924B2 (priority 2018, dated 2022).
Read-outs that look alike come from different tables or passages of the source.

Experiments:
[1] = 25° C., cited from earlier work
[2] = From the text: The neutralization reaction in vegetable glycerin is less favorable in view of the reduced solubility of CO2 (Nunes et al., 2013—Solubility of CO2 in glycerol at high pressures. J. of Fluid Phase Equilibria; 358: 105-107).
In an embodiment of the present disclosure, the experimental setup described by Bihong, et al., 2015 (Mechanisms of CO2 Capture into Monoethanolamine Solution with Different CO2 Loading during the Absorption/Desorption Processes. J. of Environmental Science technology; 49 (17): 10728-10735) was implemented. […] In a further embodiment of the present disclosure, the neutralization with CO2 was performed at pressures ranging from about 0.1 MPa to about 2.7 MPa.
The organic acid is typically selected based on volatility under vaping conditions, tastelessness, low toxicity or nontoxicity to human health, ease of manipulation, ability to form liquid salts and […] an unpleasant sensation such as shortness of breath. In a further embodiment of the present disclosure, the organic acid is glycolic acid.

[3] = 20° C.; cited from earlier work
[4] = pH 7.4; cited from earlier work
[5] = after absorption through the lung; cited from earlier work
[6] = pig's nasal mucosa; cited from earlier work

Source text for subjects: This sensation ranges from a smooth satisfying catch as the vapor travels down the throat to an intolerable harshness.

For `O=C=O` [CO2], the “number moles of CO2 dissolved” value ([1]; acetone, 0.52 MPa) is listed as 0.0876, the “number moles of CO2 dissolved” value ([1]; ethanol, 0.41 MPa) is listed as 0.0349 and the “number moles of CO2 dissolved” value ([1]; propylene glycol, 0.38 MPa) is listed as 0.0100.
With `O=C(O)CC(O)(CC(=O)O)C(=O)O` [citric acid] the “sensation produced by the acid used in the formulation” value (“sensation produced by the acid used” for short) (subjects; in vivo) was “unpleasant feeling”.
With `CC(O)C(=O)O` (stereo not shown) [lactic acid] the “sensation produced by the acid used” value (subjects; in vivo) was “unpleasant feeling”.
In the case of `O=C(O)CC(O)C(=O)O` (stereo not shown) [malic acid], the “sensation produced by the acid used” value (subjects; acid in nicotine formulations) is reported as “unpleasant feeling”.
With `CN1CCCC1c1cccnc1` (stereo not shown) [nicotine] the “pH reached by neutralization with CO2” value ([2]; about 25° C., about 0.41 MPa) was no more than 7.5, the “final pH after neutralization with CO2” value ([2]; in water) was 6.8 and the “initial pH” value ([2]; pure nicotine in propylene glycol, before neutralization) was “above 9.5”. The “burning sensation in the throat” value (subjects; in vivo) was “diminishes or disappears”, the “feeling of shortness of breath” value (subjects; in vivo) was “waned or disappeared” and the pKa [3] was 6.15. The nicotine ionized [4] was roughly 69%, the nicotine unionized [4] was 31% and the “estimated time to reach the brain” value [5] was 10 to 20 s. The “permeation of the protonated form versus the unionized form” value [6] was “higher than that for the unionized form”.
